Experimental data: patent EP4722219A1 (Gan & Lee Pharmaceuticals Co., Ltd., priority 2023, dated 2024)

What was measured:
Type in all cases: cell-based
SMARCA4 [1] = target: T1, SMARCA4 (Homo sapiens, UniProt P51532); assay: SMARCA4 degradation in SW1573 cells (Western blot); parameters: endogenous in cells; host or cells: SW1573; conditions: 24 hours; for Dmax at 0.001 µM / Dmax at 0.08 µM: read-out: Degradation rate of SMARCA4 in SW1573 cells (%)
Description: SW1573 cells were seeded at 2x10^5Cells/well in a 6-well plate. 2 mL of EMEM medium supplemented with 10% FBS was added to each well and was incubated overnight to allow cell attachment. […] The cells were returned to the incubator and incubated for another 24 hours.
(§1) After 24 hours, cells were harvested, the medium was aspirated, and the cells were rinsed once with 1 mL/well PBS. The PBS was aspirated, and 40 µL/well of RIPA lysis buffer containing protease inhibitors was added. After lysis and centrifugation, total protein extracts were obtained, and protein concentration in the extracts was determined by BCA assay. Protein electrophoresis was performed by SDS-PAGE, followed by constant voltage electrophoresis at 100 V for 60 minutes and the protein was then transferred to a PVDF membrane. The PVDF membrane was blocked in 5% skim milk powder for 1 hour at room temperature. […] After washing the membrane, secondary antibodies were added and incubated at room temperature for 1 hour (protected from the light). After washing, the membrane was exposed using an Odyssey luminometer. Grayscale analysis of bands was performed using Image Studio software.
(§2) The degradation rate (%) of SMARCA2/4 by the PROTAC compounds of the present invention in HeLa cells and SW1573 cells is shown in Table 10. Table 10 Degradation rate of SMARCA2/4 by PROTAC compounds of the present invention in HeLa cells and SW1573 cells (%)

SMARCA2 [2] = target: T2, SMARCA2 (Homo sapiens, UniProt P51531); assay: SMARCA2 degradation in SW1573 cells (Western blot); parameters: endogenous in cells; host or cells: SW1573; conditions: 24 hours
Description: (§3) Test Example 10 Degradation rate (%) of SMARCA2/4 by the PROTAC compounds of the present invention in HeLa cells and SW1573 cells
SW1573 cells were seeded at 2x10^5Cells/well in a 6-well plate. 2 mL of EMEM medium supplemented with 10% FBS was added to each well and was incubated overnight to allow cell attachment. The next day, 1 µL of 160 µM and 1 µL of 2 µM compound were added to the corresponding wells for treatment, resulting in final compound concentrations of 80 nM and 1 nM, respectively, and a final DMSO concentration of 0.05%. The cells were returned to the incubator and incubated for another 24 hours.
(§4) After 24 hours, cells were harvested, the medium was aspirated, and the cells were rinsed once with 1 mL/well PBS. The PBS was aspirated, and 40 µL/well of RIPA lysis buffer containing protease inhibitors was added. After lysis and centrifugation, total protein extracts were obtained, and protein concentration in the extracts was determined by BCA assay. Protein electrophoresis was performed by SDS-PAGE, followed by constant voltage electrophoresis at 100 V for 60 minutes and the protein was then transferred to a PVDF membrane. The PVDF membrane was blocked in 5% skim milk powder for 1 hour at room temperature. Primary antibodies (SMARCA2: CST#11966S, SMARCA4: CST#49360S, GAPDH: CST#5174S) were added and incubated overnight at 4°C. After washing the membrane, secondary antibodies were added and incubated at room temperature for 1 hour (protected from the light). After washing, the membrane was exposed using an Odyssey luminometer. Grayscale analysis of bands was performed using Image Studio software.
as §2

SMARCA2 [3] = target: T2, SMARCA2; assay: SMARCA2 degradation in HeLa cells (Western blot); parameters: endogenous in cells; conditions: 4 hours
Description: as §3
HeLa cells were seeded at 1.2 x 10^5 cells/well in a 6-well plate. 2 mL of EMEM medium supplemented with 10% FBS was added to each well and the culture dish was incubated overnight to allow the cells to adhere. The next day, 1 µL of 160 µM and 1 µL of 2 µM compound were added to the corresponding wells, resulting in final compound concentrations of 80 nM and 1 nM, respectively, and a final DMSO concentration of 0.05%. The cells were returned to the incubator and incubated for another 4 hours.
as §4, with “After 4 hours, cells” for “After 24 hours, cells”, “harvested, the culture medium was” for “harvested, the medium was”
as §2

SMARCA4 [4] = target: T1, SMARCA4; assay: SMARCA4 degradation in HeLa cells (Western blot); parameters: endogenous in cells; conditions: 4 hours, read-out: Degradation rate of SMARCA4 in HeLa cells (%); for Dmax at 0.001 µM: 1 nM; for Dmax at 0.08 µM: 80 nM
Description: HeLa cells were seeded at 1.2 x 10^5 cells/well in a 6-well plate. 2 mL of EMEM medium supplemented with 10% FBS was added to each well and the culture dish was incubated overnight to allow the cells to adhere. […] The cells were returned to the incubator and incubated for another 4 hours.
as §1, with “After 4 hours, cells” for “After 24 hours, cells”, “harvested, the culture medium was” for “harvested, the medium was”
as §2

T1 sequence (P51532 whole entry): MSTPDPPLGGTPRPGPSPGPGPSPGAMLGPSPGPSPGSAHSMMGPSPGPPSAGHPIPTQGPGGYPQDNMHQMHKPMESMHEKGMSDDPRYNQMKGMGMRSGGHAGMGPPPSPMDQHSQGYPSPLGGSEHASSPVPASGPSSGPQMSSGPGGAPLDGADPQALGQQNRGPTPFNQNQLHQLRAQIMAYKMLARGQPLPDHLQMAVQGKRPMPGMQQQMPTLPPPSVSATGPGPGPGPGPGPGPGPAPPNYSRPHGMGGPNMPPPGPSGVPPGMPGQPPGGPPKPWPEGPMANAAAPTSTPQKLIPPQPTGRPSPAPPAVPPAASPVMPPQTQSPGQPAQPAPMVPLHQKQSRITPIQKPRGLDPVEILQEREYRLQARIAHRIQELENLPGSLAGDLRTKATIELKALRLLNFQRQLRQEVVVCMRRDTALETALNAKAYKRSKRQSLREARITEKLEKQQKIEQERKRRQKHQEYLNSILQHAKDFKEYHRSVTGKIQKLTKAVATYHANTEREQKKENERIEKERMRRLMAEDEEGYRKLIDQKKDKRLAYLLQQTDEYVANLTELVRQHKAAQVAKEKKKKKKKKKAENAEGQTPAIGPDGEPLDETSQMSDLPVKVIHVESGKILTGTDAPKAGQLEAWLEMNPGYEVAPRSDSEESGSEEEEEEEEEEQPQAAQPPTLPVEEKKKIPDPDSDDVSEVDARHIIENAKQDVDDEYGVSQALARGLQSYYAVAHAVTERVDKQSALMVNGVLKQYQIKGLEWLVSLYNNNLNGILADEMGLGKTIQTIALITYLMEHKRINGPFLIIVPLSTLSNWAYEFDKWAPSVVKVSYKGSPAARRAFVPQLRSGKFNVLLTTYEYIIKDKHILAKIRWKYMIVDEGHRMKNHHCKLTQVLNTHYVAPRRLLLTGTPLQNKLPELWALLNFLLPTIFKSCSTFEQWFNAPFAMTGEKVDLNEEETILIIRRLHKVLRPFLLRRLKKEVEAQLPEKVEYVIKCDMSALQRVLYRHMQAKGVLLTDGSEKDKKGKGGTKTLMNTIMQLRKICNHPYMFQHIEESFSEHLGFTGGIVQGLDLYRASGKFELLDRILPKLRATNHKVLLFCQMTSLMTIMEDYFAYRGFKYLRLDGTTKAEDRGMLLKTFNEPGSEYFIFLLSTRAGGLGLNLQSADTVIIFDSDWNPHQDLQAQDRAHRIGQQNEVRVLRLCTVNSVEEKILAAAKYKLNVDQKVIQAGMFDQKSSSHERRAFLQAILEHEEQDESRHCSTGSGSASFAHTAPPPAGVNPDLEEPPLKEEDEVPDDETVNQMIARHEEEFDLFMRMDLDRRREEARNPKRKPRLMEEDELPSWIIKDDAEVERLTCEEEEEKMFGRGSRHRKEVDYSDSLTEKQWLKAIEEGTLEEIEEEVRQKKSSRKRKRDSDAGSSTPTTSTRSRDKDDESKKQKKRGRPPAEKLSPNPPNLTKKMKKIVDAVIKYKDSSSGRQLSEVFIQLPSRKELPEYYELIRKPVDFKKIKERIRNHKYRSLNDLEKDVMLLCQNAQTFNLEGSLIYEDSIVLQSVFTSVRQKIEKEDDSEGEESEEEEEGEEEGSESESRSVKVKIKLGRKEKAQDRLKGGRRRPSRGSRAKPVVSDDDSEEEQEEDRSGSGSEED
T2 sequence (P51531 whole entry): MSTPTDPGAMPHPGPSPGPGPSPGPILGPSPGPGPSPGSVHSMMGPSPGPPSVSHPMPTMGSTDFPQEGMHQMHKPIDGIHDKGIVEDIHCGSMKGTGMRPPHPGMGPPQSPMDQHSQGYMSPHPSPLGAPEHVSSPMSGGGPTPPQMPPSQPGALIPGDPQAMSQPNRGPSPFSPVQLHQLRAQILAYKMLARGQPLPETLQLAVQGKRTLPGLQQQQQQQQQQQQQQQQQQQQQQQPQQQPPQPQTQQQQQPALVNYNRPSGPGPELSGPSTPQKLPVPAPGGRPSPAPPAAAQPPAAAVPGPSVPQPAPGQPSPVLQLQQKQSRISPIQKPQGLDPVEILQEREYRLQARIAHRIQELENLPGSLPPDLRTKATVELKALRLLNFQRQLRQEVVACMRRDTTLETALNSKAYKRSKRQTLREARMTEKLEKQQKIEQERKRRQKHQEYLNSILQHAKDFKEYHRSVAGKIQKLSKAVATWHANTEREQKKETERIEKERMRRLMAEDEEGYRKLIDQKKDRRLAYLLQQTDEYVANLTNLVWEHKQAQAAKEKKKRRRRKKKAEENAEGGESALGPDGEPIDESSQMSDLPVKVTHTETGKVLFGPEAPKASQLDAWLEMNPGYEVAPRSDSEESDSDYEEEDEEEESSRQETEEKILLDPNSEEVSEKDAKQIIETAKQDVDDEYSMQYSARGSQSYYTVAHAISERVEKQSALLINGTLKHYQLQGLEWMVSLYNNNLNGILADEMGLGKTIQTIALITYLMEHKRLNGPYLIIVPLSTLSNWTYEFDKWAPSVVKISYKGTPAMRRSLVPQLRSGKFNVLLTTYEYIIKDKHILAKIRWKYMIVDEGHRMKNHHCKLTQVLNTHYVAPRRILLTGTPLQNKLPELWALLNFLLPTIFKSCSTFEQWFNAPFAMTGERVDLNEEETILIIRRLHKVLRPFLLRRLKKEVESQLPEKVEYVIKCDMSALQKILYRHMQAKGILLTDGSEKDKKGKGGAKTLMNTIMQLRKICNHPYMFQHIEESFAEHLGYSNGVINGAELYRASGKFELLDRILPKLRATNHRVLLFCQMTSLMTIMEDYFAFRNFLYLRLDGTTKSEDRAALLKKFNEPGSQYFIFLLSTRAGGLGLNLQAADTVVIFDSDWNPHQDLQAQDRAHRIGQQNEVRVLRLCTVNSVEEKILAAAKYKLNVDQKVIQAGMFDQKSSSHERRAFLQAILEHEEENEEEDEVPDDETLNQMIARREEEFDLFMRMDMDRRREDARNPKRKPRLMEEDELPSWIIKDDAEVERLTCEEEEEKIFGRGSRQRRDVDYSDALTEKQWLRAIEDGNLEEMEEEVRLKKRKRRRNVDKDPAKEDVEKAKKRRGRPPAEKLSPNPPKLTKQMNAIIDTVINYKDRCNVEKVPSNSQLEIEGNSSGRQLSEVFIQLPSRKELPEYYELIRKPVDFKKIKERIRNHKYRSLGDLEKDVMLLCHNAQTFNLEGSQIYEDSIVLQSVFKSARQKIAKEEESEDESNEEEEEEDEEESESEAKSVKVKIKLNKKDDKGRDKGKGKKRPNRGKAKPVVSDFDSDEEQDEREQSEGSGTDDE

Nc1nnc(-c2ccccc2O)cc1C#CC1CCC2(CC1)CC(N1CCN3c4cc(F)c(C(=O)N[C@H]5CCC(=O)NC5=O)cc4OC[C@H]3C1)C2 (stereo partly drawn) [SM-P-6, (R)-3-(7-((3-amino-6-(2-hydroxyphenyl)pyridazin-4-yl)ethynyl)spiro[3.5]nonan-2-yl)-n-((S)-2,6-dioxopiperidin-3-yl)-9-fluoro-1,2,3,4,4a,5-hexahydrobenzo[b]pyrazi no[1,2-d][1,4]oxazine-8-carboxamide]
Degradation rate of SMARCA4 in SW1573 cells (%) (SMARCA4 [1]; 1 nM): -30%
Degradation rate of SMARCA4 in SW1573 cells (%) (SMARCA4 [1]; 80 nM): -41%
Degradation rate of SMARCA2 in SW1573 cells (%) (SMARCA2 [2]; 1 nM): 20%
Degradation rate of SMARCA2 in SW1573 cells (%) (SMARCA2 [2]; 80 nM): 34%

Nc1nnc(-c2ccccc2O)cc1C#CC1CCC2(CC1)CC(N1CCC3(CCc4ccc(NC5CCC(=O)NC5=O)cc4O3)CC1)C2 (centres unmarked) [SM-P-24, 3-((1'-(7-((3-amino-6-(2-hydroxyphenyl)pyridazin-4-yl)ethynyl)spiro[3.5]nonan-2-yl)spiro[chromane-2,4'-piperidin]-7-yl)amino)piperidine-2,6-dione]
Dmax at 0.001 µM (SMARCA4 [1]; 1 nM): 12%
Dmax at 0.08 µM (SMARCA4 [1]; 80 nM): 11%
Degradation rate of SMARCA2 in SW1573 cells (%) (SMARCA2 [2]; 1 nM): -29%
Degradation rate of SMARCA2 in SW1573 cells (%) (SMARCA2 [2]; 80 nM): -75%
Degradation rate of SMARCA2 in HeLa cells (%) (SMARCA2 [3]; 1 nM): -10%
Degradation rate of SMARCA2 in HeLa cells (%) (SMARCA2 [3]; 80 nM): 29%
Dmax at 0.001 µM (SMARCA4 [4]): -34%
Dmax at 0.08 µM (SMARCA4 [4]): -1%

Nc1nnc(-c2ccccc2O)cc1C#CC1CCC2(CC1)CC(N1CCC3(CCc4cc(F)c(C(=O)N[C@H]5CCC(=O)NC5=O)cc4O3)CC1)C2 (some centres unmarked) [SM-P-12]
Dmax at 0.001 µM (SMARCA4 [1]; 1 nM): 28%
Dmax at 0.08 µM (SMARCA4 [1]; 80 nM): 5%
Degradation rate of SMARCA2 in SW1573 cells (%) (SMARCA2 [2]; 1 nM): 32%
Degradation rate of SMARCA2 in SW1573 cells (%) (SMARCA2 [2]; 80 nM): 32%
Degradation rate of SMARCA2 in HeLa cells (%) (SMARCA2 [3]; 1 nM): 6%
Degradation rate of SMARCA2 in HeLa cells (%) (SMARCA2 [3]; 80 nM): 14%
Dmax at 0.001 µM (SMARCA4 [4]): 17%
Dmax at 0.08 µM (SMARCA4 [4]): 24%

Cn1c(=O)n(C2CCC(=O)NC2=O)c2ccc3c(c21)OCC31CCN(C(=O)[C@H]2CC[C@H](Cn3cc(-c4cc(-c5ccccc5O)nnc4N)cn3)CC2)CC1 (some centres unmarked) [SM-P-27, 3-(1'-((1r,4r)-4-((4-(3-amino-6-(2-hydroxyphenyl)pyridazin-4-yl)-1H-pyrazol-1-yl)methyl)cyclohexane-1-carbonyl)-1-methyl-2-oxo-1,2-dihvdro-3H,7H-spiro[benzofuro[6,7-d]imidazole-6,4'-piperidin]-3-yl)piperidine-2,6-dione]
Dmax at 0.001 µM (SMARCA4 [1]; 1 nM): 40%
Dmax at 0.08 µM (SMARCA4 [1]; 80 nM): 82%
Degradation rate of SMARCA2 in SW1573 cells (%) (SMARCA2 [2]; 1 nM): 59%
Degradation rate of SMARCA2 in SW1573 cells (%) (SMARCA2 [2]; 80 nM): 88%
Degradation rate of SMARCA2 in HeLa cells (%) (SMARCA2 [3]; 1 nM): 51%
Degradation rate of SMARCA2 in HeLa cells (%) (SMARCA2 [3]; 80 nM): 90%
Dmax at 0.001 µM (SMARCA4 [4]): 22%
Dmax at 0.08 µM (SMARCA4 [4]): 79%

Nc1nnc(-c2ccccc2O)cc1C#CC1CCC2(CC1)CC(N1CCN3c4cc(NC5CCC(=O)NC5=O)ccc4OCC[C@H]3C1)C2 (some centres unmarked) [SM-P-17]
Dmax at 0.001 µM (SMARCA4 [1]; 1 nM): -18%
Dmax at 0.08 µM (SMARCA4 [1]; 80 nM): 12%
Degradation rate of SMARCA2 in SW1573 cells (%) (SMARCA2 [2]; 1 nM): 12%
Degradation rate of SMARCA2 in SW1573 cells (%) (SMARCA2 [2]; 80 nM): 72%

Cn1c(=O)n(C2CCC(=O)NC2=O)c2cc3c(cc21)C1(CCN(C(=O)[C@H]2CC[C@H](Cn4cc(-c5cc(-c6ccccc6O)nnc5N)cn4)CC2)CC1)CO3 (some centres unmarked) [SM-P-28, 3-(1'-((1r,4r)-4-((4-(3-amino-6-(2-hydroxyphenyl)pyridazin-4-yl)-1H-pyrazol-1-yl)methyl)cyclohexane-1-carbonyl)-1-methyl-2-oxo-1,2-dihydro-3H,6H-spiro[benzofuro[5,6-d]imidazole-7,4'-piperidin]-3-yl)piperidine-2,6-dione]
Dmax at 0.001 µM (SMARCA4 [1]; 1 nM): 11%
Dmax at 0.08 µM (SMARCA4 [1]; 80 nM): 95%
Degradation rate of SMARCA2 in SW1573 cells (%) (SMARCA2 [2]; 1 nM): 14%
Degradation rate of SMARCA2 in SW1573 cells (%) (SMARCA2 [2]; 80 nM): 77%
Degradation rate of SMARCA2 in HeLa cells (%) (SMARCA2 [3]; 1 nM): 17%
Degradation rate of SMARCA2 in HeLa cells (%) (SMARCA2 [3]; 80 nM): 98%
Dmax at 0.001 µM (SMARCA4 [4]): 38%
Dmax at 0.08 µM (SMARCA4 [4]): 99%

Nc1nnc(-c2ccccc2O)cc1C#CC1CCC2(CC1)CC(N1CCC3(CC1)COc1cc(NC4CCC(=O)NC4=O)ccc1C3)C2 (centres unmarked) [SM-P-23, 3-((1'-(7-((3-amino-6-(2-hydroxyphenyl)pyridazin-4-yl)ethynyl)spiro[3.5]nonan-2-yl)spiro[chromane-3,4'-piperidin]-7-yl)amino)piperidine-2,6-dione]
Dmax at 0.001 µM (SMARCA4 [1]; 1 nM): -14%
Dmax at 0.08 µM (SMARCA4 [1]; 80 nM): 93%
Degradation rate of SMARCA2 in SW1573 cells (%) (SMARCA2 [2]; 1 nM): 38%
Degradation rate of SMARCA2 in SW1573 cells (%) (SMARCA2 [2]; 80 nM): 95%

Cc1ncsc1-c1ccc([C@H](C)NC(=O)[C@@H]2C[C@@H](O)CN2C(=O)[C@@H](NC(=O)[C@H]2CC[C@H](CN3CC4(CCC(n5cc(-c6cc(-c7ccccc7O)nnc6N)cn5)CC4)C3)CC2)C(C)(C)C)cc1 [SMD-3040, (2S,4R)-1-((S)-2-((1R,4S)-4-((7-(4-(3-amino-6-(2-hydroxyphenyl)pyridazin-4-yl)-1H-pyrazol-1-yl)-2-azaspiro[3.5]nonan-2-yl)methyl)cyclohexane-1-carboxamido)-3,3-dimethylbutanoyl)-4-hydroxy-N-((S)-1-(4-(4-methylthiazol-5-yl)phenyl)ethyl)pyrrolidine-2-carboxamide, reference compound]
Degradation rate of SMARCA4 in SW1573 cells (%) (SMARCA4 [1]; 1 nM): 21%
Degradation rate of SMARCA4 in SW1573 cells (%) (SMARCA4 [1]; 80 nM): 86%
Degradation rate of SMARCA2 in SW1573 cells (%) (SMARCA2 [2]; 1 nM): 89%
Degradation rate of SMARCA2 in SW1573 cells (%) (SMARCA2 [2]; 80 nM): 99%

CN(C(=O)c1ccc2c(c1)OC[C@H]1CN(C3CC4(CCC(C#Cc5cc(-c6ccccc6O)nnc5N)CC4)C3)CCN21)[C@H]1CCC(=O)NC1=O (some centres unmarked) [SM-P-18]
Dmax at 0.001 µM (SMARCA4 [1]; 1 nM): -32%
Dmax at 0.08 µM (SMARCA4 [1]; 80 nM): -34%
Degradation rate of SMARCA2 in SW1573 cells (%) (SMARCA2 [2]; 1 nM): 16%
Degradation rate of SMARCA2 in SW1573 cells (%) (SMARCA2 [2]; 80 nM): 25%

Nc1nnc(-c2ccccc2O)cc1C#CC1CCC2(CC1)CC(N1CCN3c4ccc(C(=O)N[C@H]5CCC(=O)NC5=O)c(F)c4OC[C@H]3C1)C2 (some centres unmarked) [SM-P-22]
Dmax at 0.001 µM (SMARCA4 [1]; 1 nM): 14%
Dmax at 0.08 µM (SMARCA4 [1]; 80 nM): 4%
Degradation rate of SMARCA2 in SW1573 cells (%) (SMARCA2 [2]; 1 nM): -9%
Degradation rate of SMARCA2 in SW1573 cells (%) (SMARCA2 [2]; 80 nM): 28%
